ChEMBL document CHEMBL4402607, “Molecular Basis for Omapatrilat and Sampatrilat Binding to Neprilysin-Implications for Dual Inhibitor Design with Angiotensin-Converting Enzyme” (J Med Chem, 2020)

Tests used:
[1] = biological target: Angiotensin-converting enzyme (Homo sapiens) (UniProt P12821); test: Selectivity index, ratio of Ki for human wild type ACE N-domain to Ki for human testis ACE C-domain (unknown origin) using Abz-FRK(Dnp)P-OH as substrate by fluorescence based analysis
[2] = biological target: Angiotensin-converting enzyme (Homo sapiens) (UniProt P12821); test: Selectivity index, ratio of Ki for human ACE N-domain soluble form (1 to 629 residues) expressed in CHO cells to Ki for human testis ACE C-domain lacking unique O-glycosylated region, transmembrane anchor and cytoplasmic tail expressed in CHO cells; assay type: cell-based
[3] = biological target: Angiotensin-converting enzyme (Homo sapiens) (UniProt P12821); test: Selectivity index, ratio of Ki for human somatic ACE N-terminal domain to human somatic ACE C-terminal domain using MCA-RPPGFSAFK-Dnp-OH as substrate by fluorescence based analysis

Chain of Angiotensin-converting enzyme (Homo sapiens) (P12821 whole entry, the tested form may be a part): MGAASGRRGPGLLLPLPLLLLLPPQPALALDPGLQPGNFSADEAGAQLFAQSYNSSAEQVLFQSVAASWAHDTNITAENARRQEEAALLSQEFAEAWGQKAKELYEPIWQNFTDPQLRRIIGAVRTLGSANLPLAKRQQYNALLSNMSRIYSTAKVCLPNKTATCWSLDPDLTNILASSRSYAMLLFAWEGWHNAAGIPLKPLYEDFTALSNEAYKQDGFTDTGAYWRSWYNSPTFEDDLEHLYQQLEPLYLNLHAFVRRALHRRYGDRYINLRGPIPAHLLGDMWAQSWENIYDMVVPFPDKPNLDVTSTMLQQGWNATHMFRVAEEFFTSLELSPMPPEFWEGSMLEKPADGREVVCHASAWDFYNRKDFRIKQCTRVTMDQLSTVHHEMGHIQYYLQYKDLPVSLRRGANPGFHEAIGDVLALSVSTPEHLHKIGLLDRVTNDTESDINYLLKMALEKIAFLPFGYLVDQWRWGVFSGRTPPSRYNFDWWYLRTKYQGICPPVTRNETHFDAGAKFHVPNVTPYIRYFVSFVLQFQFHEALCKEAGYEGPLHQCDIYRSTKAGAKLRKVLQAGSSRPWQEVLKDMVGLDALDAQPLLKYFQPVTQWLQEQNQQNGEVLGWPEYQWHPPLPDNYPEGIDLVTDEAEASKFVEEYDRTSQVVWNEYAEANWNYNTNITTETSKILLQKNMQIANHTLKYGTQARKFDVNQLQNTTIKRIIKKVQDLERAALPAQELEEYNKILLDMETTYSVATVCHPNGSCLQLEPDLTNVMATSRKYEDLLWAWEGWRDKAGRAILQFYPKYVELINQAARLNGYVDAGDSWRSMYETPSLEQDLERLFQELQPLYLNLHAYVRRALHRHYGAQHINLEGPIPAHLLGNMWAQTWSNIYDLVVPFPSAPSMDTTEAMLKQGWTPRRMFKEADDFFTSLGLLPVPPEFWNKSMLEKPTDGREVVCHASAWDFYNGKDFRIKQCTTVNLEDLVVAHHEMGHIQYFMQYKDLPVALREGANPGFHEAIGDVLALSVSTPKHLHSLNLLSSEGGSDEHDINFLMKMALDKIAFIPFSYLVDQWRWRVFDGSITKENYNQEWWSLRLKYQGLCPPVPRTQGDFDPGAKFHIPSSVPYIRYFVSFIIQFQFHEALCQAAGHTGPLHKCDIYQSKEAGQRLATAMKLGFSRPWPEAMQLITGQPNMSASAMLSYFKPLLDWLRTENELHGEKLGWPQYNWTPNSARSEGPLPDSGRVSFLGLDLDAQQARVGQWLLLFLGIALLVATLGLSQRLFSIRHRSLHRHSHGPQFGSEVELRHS

Work on NCCCC[C@H](N[C@@H](CCc1ccccc1)C(=O)O)C(=O)N[C@H](Cc1c[nH]c2ccccc12)C(=O)O yielded a Ratio Ki [1] of 243.
CS(=O)(=O)N[C@@H](CCCCN)C(=O)NC[C@H](CC1(C(=O)N[C@@H](Cc2ccc(O)cc2)C(=O)O)CCCC1)C(=O)O was tested, and the Ratio Ki [2] was 12.5.
For NCCCC[C@H](N[C@@H](CCc1ccccc1)C(=O)O)C(=O)N1CCC[C@H]1C(=O)O, the Ratio Ki [1] was 4.
In the case of O=C(N[C@@H](Cc1ccccc1)P(=O)(O)[C@@H]1CCC[C@H]1C(=O)N[C@@H](Cc1c[nH]c2ccccc12)C(=O)O)OCc1ccccc1, the Ratio Ki [3] is reported as 3000.
